Data set [1] in a line: LD50, intravenous, mice. Format: in vivo. To be noted: mouse, in vivo, female mice, mortalities within 1 week. As to the method:
The test material was administered intravenously to 5 female mice in five increasing doses. Mortalities were recorded within 1 week, and the LD50 was determined with the aid of statistical calculations.

Data set [2] concerns the target T1, recombinant reverse transcriptase (RT) (Human immunodeficiency virus type 1 group M subtype B, UniProt P04585).
T1 construct: purchased Worthington Biochemical Corporation
Nature of the data set: Reverse transcriptase inhibition assay. Format: biochemical, HIV-1. As to the method: Inhibition of recombinant reverse transcriptase (RT) was performed by using commercially available Boehringer Mannheim RT assay kit (Cat. No. 1468 120) based on incorporation of digoxigenin labeled dUTP into DNA. Recombinant enzyme from HIV-1 was purchased from Worthington Biochemical Corporation. The level of anti-RT activity in the sample was determined by measurement of absorbance using an ELISA reader at 405 nm.

In data set [3] the test system is TA98, TA1535, TA1537, TA1538, TA100 and W2P2uvr. Description: Ames Test (in the presence of S9). Format: cell-based, Salmonella typhimurium. The source says: Six Salmonella typhimuriumstrai strains, TA98, TA1535, TA1537, TA1538, TA100 and W2P2uvr were used in this experiment.
In data set [4] the test system is HIV-1 RF. Description: Antiviral assay, Experimental Protocol I (compound added after infection). Format: cell-based. To be noted: Human immunodeficiency virus 1, 240 h, p24 ELISA, read-out: % Inhibition (after day 10); for inhibition at 0.6 µg/mL: 0.6 μg/ml; for inhibition at 1.25 µg/mL: 1.25 μg/ml; for inhibition at 2.5 µg/mL: 2.5 μg/ml; for inhibition at 5 µg/mL: 5 μg/ml. On the procedure: HIV-1 infectivity studies were conducted in CEM, H9, MT2 cells and peripheral blood mononuclear cells (PBMC). CEM, H9 and MT2 were grown in RPMI1640 medium, 10% heat-inactivated fetal bovine serum (FBS). PBMCs were stimulated with 4 μg/ml PHA for 48 hours in RPMI1640, 10% FBS before HIV-1 infection. After HIV-1 infection, PBMCs were maintained in RPMI 1640, 10% FBS and 10 10 units/ml IL-2. The major HIV-1 isolates used were MN, IIIB, SF2, AZT-sensitive A018 and AZT-resistant A018 provided by NIH AIDS research and reference reagent program. Two major antiviral assays were developed to determine the antiviral activities of the compounds of this invention (as inhibitors).
I. The cells were infected with HIV-1 RF or IIIB at an infectivity multiplicity (moi) of 0.001 in the absence of a compound of this invention for one hour. HIV-1 infected cells were washed once with PBS, resuspended in RPMI1640, 10% FBS medium and distributed in 24-well culture dishes (5×10^5 cells per well) in the presence of a compound of this invention as inhibitor. […]

Data set [5] deals with HIV-1 patient isolate IH. Nature of the data set: Inhibition of HIV-1 patient isolate IH in PBMCs. Format: cell-based. The settings on record: Human immunodeficiency virus 1, PBMC, 288 h, read-out: % Inhibition (after day 12); for inhibition at 5 µg/mL: 5 μg/ml; for inhibition at 10 µg/mL: 10 μg/ml; for inhibition at 20 µg/mL: 20 μg/ml; for inhibition at 2.5 µg/mL: 2.5 μg/ml. As to the method:
The inhibitory effects of additional naphthalenesulfonic acid compounds were tested as follows: Experimental Details:
PBMCs were activated for 48 hours in conditioned medium containing PHA at a concentration of 4 μg/ml. […] The test compound, previously dissolved in a glucose solution (1 mg/ml), was then added to each of the wells to achieve the appropriate concentration. The plate was then incubated overnight (about 15 hours) after which 50 μl of cell-free HIV-1 patient isolate was added to each well. The plates were incubated for further 6 to 8 hours after which all free floating solution of virus was washed off. Washing was performed four times.
After removal of the virus, all cultures were resuspended in conditioned medium containing 10% FCS.
For control experiments virus growth was monitored in either 10% FCS or 50% FCS throughout the observation period (15 days).

Each structure is given as a SMILES string. Where two headings read alike, the source gives them in different places.

What is called LD50 is the dose at which mortality reaches 50%. Higher therefore signals lower toxicity. In general, inhibition refers to the change of the read-out against control, counted positive when it falls. As for `COc1cc(N=Nc2c(S(=O)(=O)O)cc3cc(S(=O)(=O)O)cc(NC(=O)c4cc(Cl)ccc4Cl)c3c2O)c(OC)cc1N=Nc1c(S(=O)(=O)O)cc2cc(S(=O)(=O)O)cc(NC(=O)c3cc(Cl)ccc3Cl)c2c1O` [Compound 7], the LD50 at 168 h in data set [1] amounted to 170 mg/kg. Moreover, in data set [2], the inhibition at 0.5 µM turned out to be 41% and the inhibition at 5 µM was found to be 75%. Besides, in data set [3], the “Ames Test result” value was “Positive”. The “Ames Test, specific mutagenic activity” value in data set [3] (unit as printed for Compound 7) came out at 0.05 colony no/g g. In data set [4] (10% FCS), the inhibition at 0.6 µg/mL amounted to 81%, the inhibition at 1.25 µg/mL amounted to 99%, the inhibition at 2.5 µg/mL was 100% and the inhibition at 5 µg/mL came to 100%. Also, in data set [4] (50% Human Serum), the inhibition at 0.6 µg/mL is 0%, the inhibition at 1.25 µg/mL worked out at 0%, the inhibition at 2.5 µg/mL turned out to be 48% and the inhibition at 5 µg/mL is 97%.
In the case of `COc1cc(N=Nc2c(S(=O)(=O)O)cc3cc(S(=O)(=O)O)cc(NC(=O)c4ccccc4)c3c2O)c(OC)cc1N=Nc1c(S(=O)(=O)O)cc2cc(S(=O)(=O)O)cc(NC(C)=O)c2c1O` [Compound 5], in data set [1], the 50% lethal dose (LD50) at 168 h was 120 mg/kg. Also, in data set [5] (10% FCS), the inhibition at 5 µg/mL was determined as 45%, the inhibition at 10 µg/mL is 77% and the inhibition at 20 µg/mL is 77%. Moreover, in data set [3], the “Ames Test result” value is reported as “Negative”. For the same compound, in data set [4] (10% FCS), the inhibition at 0.6 µg/mL was 45%, the inhibition at 1.25 µg/mL is 87%, the inhibition at 2.5 µg/mL turned out to be 100% and the inhibition at 5 µg/mL turned out to be 100%.
For `COc1cc(N=Nc2c(S(=O)(=O)O)cc3cc(S(=O)(=O)O)cc(NC(=O)c4ccc(Cl)cc4Cl)c3c2O)c(OC)cc1N=Nc1c(S(=O)(=O)O)cc2cc(S(=O)(=O)O)cc(NC(=O)Cc3ccc(Cl)cc3)c2c1O` [Compound 18], in data set [1], the LD50 at 168 h was 135 mg/kg. In data set [2], the inhibition at 5 µM was found to be 66%. The “Ames Test result” value in data set [3] is “Negative”.
In the case of `COc1cc(N=Nc2c(S(=O)(=O)O)cc3cc(S(=O)(=O)O)cc(NC(=O)c4cccc(Cl)c4Cl)c3c2O)c(OC)cc1N=Nc1c(S(=O)(=O)O)cc2cc(S(=O)(=O)O)cc(NC(=O)COc3ccccc3)c2c1O` [Compound 4], the LD50 at 168 h in data set [1] worked out at 160 mg/kg. Further, in data set [5] (10% FCS), the inhibition at 5 µg/mL turned out to be 60%, the inhibition at 10 µg/mL was determined as 88% and the inhibition at 20 µg/mL is 98%. Besides, the “Ames Test result” value in data set [3] was “Negative”.
In the same order, the values of `COc1cc(N=Nc2c(S(=O)(=O)O)cc3cc(S(=O)(=O)O)cc(NC(=O)c4cccc5ccccc45)c3c2O)c(OC)cc1N=Nc1ccc2cc(S(=O)(=O)O)cc(NC(=O)c3ccccc3)c2c1O` [Compound 13] are 160 mg/kg, 55%, 70%, 100% and “Negative”.
In data set [1], `COc1cc(N=Nc2c(S(=O)(=O)O)cc3cc(S(=O)(=O)O)cc(NC(=O)Nc4cccc5ccccc45)c3c2O)c(OC)cc1N=Nc1c(S(=O)(=O)O)cc2cc(S(=O)(=O)O)cc(NC(C)=O)c2c1O` [Compound 16] displayed an LD50 at 168 h of 160 mg/kg. In addition, the inhibition at 5 µM in data set [2] is 98%. Moreover, in data set [3], the “Ames Test result” value is “Positive”. For the same compound, the “Ames Test, specific mutagenic activity” value in data set [3] (the higher the value, the higher the mutagenicity) was 0.03 colony no/μg.
`COc1cc(N=Nc2c(S(=O)(=O)O)cc3cc(S(=O)(=O)O)cc(NC(=O)c4ccc(Cl)c(Cl)c4)c3c2O)c(OC)cc1N=Nc1c(S(=O)(=O)O)cc2cc(S(=O)(=O)O)cc(NC(=O)c3ccc(Cl)c(Cl)c3)c2c1O` [Compound 10]: the LD50 at 168 h in data set [1] was 140 mg/kg. For the same compound, in data set [2], the inhibition at 0.5 µM turned out to be 55%. For the same compound, the “Ames Test result” value in data set [3] is on record as “Negative”.
In data set [1], `COc1cc(N=Nc2c(S(=O)(=O)O)cc3cc(S(=O)(=O)O)cc(NC(=O)c4cc(Cl)ccc4Cl)c3c2O)c(OC)cc1N=Nc1c(S(=O)(=O)O)cc2cc(S(=O)(=O)O)cc(NC(=O)c3ccc(Cl)c(Cl)c3)c2c1O` [Compound 12] came in with an LD50 at 168 h of 190 mg/kg. Besides, in data set [5] (10% FCS), the inhibition at 2.5 µg/mL came out at 0%, the inhibition at 5 µg/mL came to 85%, the inhibition at 10 µg/mL worked out at 100% and the inhibition at 20 µg/mL amounted to 100%. Also, in data set [5] (50% Human Serum), the inhibition at 2.5 µg/mL was 0%, the inhibition at 5 µg/mL stood at 0%, the inhibition at 10 µg/mL was found to be 90% and the inhibition at 20 µg/mL was determined as 93%. In addition, the “Ames Test result” value in data set [3] was “Negative”. The inhibition at 0.3 µg/mL in data set [4] (10% FCS, 0.3 μg/ml) worked out at 86%. Moreover, in data set [4] (10% FCS), the inhibition at 0.6 µg/mL is 96%, the inhibition at 1.25 µg/mL worked out at 99%, the inhibition at 2.5 µg/mL was determined as 100% and the inhibition at 5 µg/mL is 100%. For the same compound, in data set [4] (50% Human Serum), the inhibition at 0.6 µg/mL was 0%, the inhibition at 1.25 µg/mL turned out to be 0%, the inhibition at 2.5 µg/mL amounted to 40% and the inhibition at 5 µg/mL is 93%.
`COc1cc(N=Nc2c(S(=O)(=O)O)cc3cc(S(=O)(=O)O)cc(NC(=O)c4cccc(Cl)c4Cl)c3c2O)c(OC)cc1N=Nc1c(S(=O)(=O)O)cc2cc(S(=O)(=O)O)cc(NC(=O)c3ccccc3Cl)c2c1O` [Compound 21] showed an LD50 at 168 h in data set [1] of 160 mg/kg. Also, in data set [5] (10% FCS), the inhibition at 2.5 µg/mL amounted to 0%, the inhibition at 5 µg/mL is 23%, the inhibition at 10 µg/mL was determined as 77% and the inhibition at 20 µg/mL came to 100%. In data set [5] (50% Human Serum), the inhibition at 2.5 µg/mL was found to be 10%, the inhibition at 5 µg/mL turned out to be 23%, the inhibition at 10 µg/mL is 61% and the inhibition at 20 µg/mL was determined as 100%. Further, the “Ames Test result” value in data set [3] is given as “Negative”.
Consider `CCC(C)(C)c1ccc(OCC(=O)Nc2cc(S(=O)(=O)O)cc3cc(S(=O)(=O)O)c(N=Nc4cc(OC)c(N=Nc5c(S(=O)(=O)O)cc6cc(S(=O)(=O)O)cc(NC(C)=O)c6c5O)cc4OC)c(O)c23)c(C(C)(C)CC)c1` [Compound 3], for which, in data set [1], the LD50 at 168 h was 150 mg/kg. In addition, the inhibition at 0.5 µM in data set [2] was determined as 77%. In addition, the “Ames Test result” value in data set [3] is on record as “Negative”. In addition, in data set [4] (10% FCS), the inhibition at 1.25 µg/mL is 96%, the inhibition at 2.5 µg/mL is 100% and the inhibition at 5 µg/mL amounted to 100%.

(Values after patent publication US5589510A, “Method for inhibiting retroviral infection by administering a naphthalenesulfonic acid compound” (priority 1995, dated 1996).)
